Measured values taken from US20230075368A1, “IDENTIFICATION OF AN EGFR-BIN3 PATHWAY THAT ACTIVELY SUPPRESSES INVASION AND REDUCES TUMOR SIZE IN GLIOBLASTOMA” (The United States Govemment as represented by the …, priority 2020, published 2023).

Key:
[1] = tested on: BIN3; assay: BIN3 expression by Western blot / real-time PCR; format: cell-based, human
Protocol: Mayo PDX cells were serum starved overnight. Following treatment for specific time, cells were harvested and lysed. The human glioblastoma tissues were ground in liquid nitrogen and then were lysed. […] TGFα antibody was from R&D system.
Total RNA from cells was extracted by TRIzol Reagent (Ambion). […] The expression of each gene was normalized to GAPDH as a reference. The following primers were used.
Specifically, Western blot analysis of BIN3 in PDXs in response to EGF was performed (FIG. 4A). Cells were serum starved overnight and treated with 50 ng/ml EGF for 48 hours. BIN3 mRNA levels in EGF-treated PDXs were determined by real-time PCR (FIG. 7B). […] Cells were treated with BIN3 or scrambled siRNA for 48 hours, transfected cells were treated with or without 50 ng/ml EGF for 24 hours. Similar experiments were conducted in GBM6 and GBM22 (FIG. 7D and FIG. 7E). Referring to FIG. 7F, knockdown efficiency of BIN3 siRNA was analyzed by Western blotting. […] Cells were transiently transfected with vector expressing BIN3 for 48 hours followed by invasion assay. […] EGR1 mRNA levels in GBM12 and GBM6 after EGF treatment were determined by real-time PCR (RT-PCR) (FIG. 7I). […] A similar experiment was performed in GBM6 (FIG. 7L). […] A similar experiment was performed in GBM6 (FIG. 7N). Knockdown efficiency of EGR-1 siRNA was analyzed by Western blotting (FIG. 7O). The Western blot images are representative of three independent biological replicates. Actin served as loading control. Data are represented as mean±SEM from three independent experiments. * P<0.05, **P<0.01, unpaired two-tailed t-test.

[2] = tested on: Mayo PDX cells; assay: Matrigel invasion assay; format: cell-based, human
Protocol: Invasion status of cells was tested with Matrigel Boyden chamber assays (Fisher). 1×10^5 cells were plated on BD BioCoat Matrigel invasion chambers. 24 hours after treatment with drugs, invaded cells were stained with the HEMA-3 kit (Fisher). Invaded cells were counted in 4-5 random fields.
An equal number of cells (5×10^4) were seeded on Matrigel coated inserts, and were untreated (control vehicle) or stimulated with 50 ng/ml EGF for 24 hours, cells invading to the other side of the membrane were counted and presented as percentage cell invasion. […] A similar invasion assay was conducted on GBM26 cells (FIG. 2D). […] Cells were transfected with EGFR or scrambled siRNA for 48 hours before the invasion assay. A similar invasion assay was performed on GBM6 (FIG. 2G). […] Cells were transiently transfected with empty or EGFR wildtype (EGFRwt) overexpressing vector, and invasion assay was performed after 48 hours after transfection. […] Cells were treated with or without 50 ng/ml EGF for 48 hours before the assay. The Western blot images are representative of three independent biological replicates. Actin served as loading control. Data are represented as mean±SEM from three independent experiments. *P<0.05, **P<0.01, n.s. not significant, unpaired two-tailed Student's t-test.
FIG. 3C and FIG. 3D show the results of a Matrigel invasion assay of EGFR siRNA knockdown in GBM12 and GBM6 in response to EGF. Cells were treated with EGFR or scrambled siRNA for 48 hours, transfected cells were seeded on Matrigel coated inserts and were treated with or without 50 ng/ml EGF for 24 hours. […] Cells were transiently transfected with EGFRvIII expression or empty vector, invasion assay was performed 48 hours after transfection. […] Western blot images are representative of three independent biological replicates. Actin served as a loading control. Data are represented as mean±SEM from three independent experiments. […], **P<0.01, ***P<0.001, n.s. not significant, unpaired two-tailed t-test.

C[C@@H]1CCN(C(=O)CC#N)C[C@@H]1N(C)c1ncnc2[nH]ccc12 [tofacitinib]
upregulation of BIN3 ([1]; GBM39 and GBM44 (high endogenous EGFR ligand, high BIN3), tofacitinib 1 μM, 48 hours): do not respond | upregulation of BIN3 ([1]; GBM39 with HBEGF silenced, tofacitinib, 48 hours): could now upregulate BIN3 | BIN3 mRNA level ([1]; tofacitinib 1 μM, 24 hours, PDXs): upregulates BIN3 at the mRNA level | BIN3 protein level ([1]; tofacitinib 1 μM, 48 hours, multiple PDX lines): strongly upregulated | BIN3 level ([1]; tofacitinib in cells treated with a saturating concentration of EGF, 48 hours, GBM12 and GBM6): did not induce a further increase | responsiveness in invasion assay ([2]; GBM39 with HBEGF silenced vs. GBM39 control, tofacitinib 1 μM): more responsive | cell invasion ([2]; GBM44 with HB-EGF siRNA knockdown, tofacitinib 1 μM): inhibits invasion | cell invasion ([2]; tofacitinib 1 μM, 24 hours, multiple PDX lines): inhibited invasiveness

EGF: Recombinant human EGF (AF-100) from Peprotech; EGFR ligand
BIN3 protein level ([1]; EGF 50 ng/ml, 48 hours, Mayo PDX lines, Western blot): robust increase | BIN3 mRNA level ([1]; EGF-treated PDXs, real-time PCR): regulated by EGF at the mRNA level | cell invasion ([2]; EGF 50 ng/ml, 24 hours, multiple Mayo PDX explant cultures expressing EGFRwt or EGFRvIII plus EGFRwt): suppressed invasion | cell invasion ([2]; EGFR overexpressing PDX cells exposed to EGF): invasion is suppressed

HGF: the ligand for Met
BIN3 levels ([1]; HGF 20 ng/ml, 24 hours): does not affect BIN3 levels | cell invasion ([2]; HGF 20 ng/ml, 24 hours, GBM12 and GBM6): increased invasiveness
